Measured values from patent US7625580B1, “Semi-interpenetrating or interpenetrating polymer networks for drug delivery and tissue engineering” (Massachusetts Institute of Technology, priority 2000, dated 2009).

Test system: bovine chondroycytes
Experiment: Biocompatibility of the photoinitiator, tested without polymer, on chondrocytes before and after UVA exposure
Format: cell-based
Details: for cell damage (morphology) after light exposure: UVA 3 minutes at 1-3 mW/cm^2
From the text: Although the initiator PHK is approved for dental applications, the initiator was examined without the presence of polymer to ascertain the toxicity of the radical produced to initiate a photopolymerization. The PEOD is very reactive towards the radical so the lack of polymer would make all radicals available to damage cells (a worst case scenario). Three initiator concentrations (0.1, 0.05 and 0.01% (w/w)) were examined.
Chondrocyte isolated from calf shoulders were maintained ex vivo in cell culture medium (DMEM) at 37° C. and 5% CO2. Cells were passaged approximately once a week. Approximately 10,000 cells per well in an 8-well tissue culture plate were seeded. 1-hydroxycylcohexyl-phenyl-ketone (HPK) was added to DMEM to reach 0.1, 0.05 and 0.01% (w/w) concentrations. The cells were incubated for 24 hours in the present of the initiator to examine possible acute cell toxicity. The cells were then exposed to UVA radiation (2 mW/cm^2) for 3 minutes to activate the photoactive initiator.
To determine the effect of photoactive initiator concentration on cells before exposure to light, cells were exposed to a concentration of 0% (w/w), 0.1% (w/w), 0.05% (w/w), and 0.01% (w/w).
The effect of photoactive initiator concentration on cells after exposure to light for four days was determined by exposing cells to a concentration of 0% (w/w), 0.1% (w/w), 0.05% (w/w), and 0.01% (w/w). The cells were compared morphologically and in relation to cell proliferation for 4 days.
Further analysis was made between controls which were a) not exposed to initiator or UVA, b) cells exposed to UVA only and c) cells exposed to UVA in the presence of 0.01% PHK. The effect of photoactive initiator on cells when exposed to no light or photoactive initiator, light only, 0.01% light and initiator, and 24 hours after light exposure was determined.

Q: What does the source list for `O=C(c1ccccc1)C1(O)CCCCC1` [initiator, 1-hydroxycylcohexyl-phenyl-ketone]?
A: effect on proliferation and morphology (0.01% PHK with UVA versus no-treatment and UVA-only controls, 24 hours after light exposure): does not appear to alter proliferation and morphology; toxicity to cells before exposure to light (0.1, 0.05 and 0.01% (w/w), 24 hours incubation, no light): does not appear to be toxic; cell damage (morphology) after light exposure (initiator 0.01% versus control): no damage; cell damage (morphology) after light exposure (initiator 0.05%): Variable damage; cell damage (morphology) after light exposure (initiator 0.1%): extensive cell death
